Source: patent US20260191817A1, “FIBROBLAST MODULATORS IN STROMA-RICH TUMORS” (UNIVERSITEIT GENT, priority 2022, published 2026)

Experiments:
[1] = test system: human invasive MCF-7/6 mammary carcinoma cells; assay: Chick heart invasion (CHI) assay with MCF-7/6 aggregates; assay type: cell-based; details: MCF7/6, 192 h, lowest concentration at which an anti-invasive effect (histological grade I or II) was observed, 8 days, read-out: Lowest active concentration
Protocol: Chick heart invasion assays were performed as described earlier (Bracke et al. 2014). Precultured heart fragments of 9-day-old chicken embryos were confronted with MCF-7/6 aggregates on top of a semi-solid agar at 37° C. overnight, after which the confronting pairs were cultured in suspension for 8 days at 37° C., 10% CO2 in presence or absence of a test compound (in duplo). This procedure can also be performed with aggregates of 4T1-Luc cells, for which the suspension culture of the confronting pairs is performed for 3.5 days. All compounds were evaluated at 1 μM and 100 nM; depending on the outcome higher or lower concentrations were subsequently evaluated. Upon fixation in Bouin-Hollande, the cultures were dehydrated and embedded in paraffin. Sections of the confrontation cultures were stained with hematoxylin-eosin are blinded and scored by a trained person (Bracke et al., 2014).
In the chick heart invasion assay cancer cells are confronted with a fragment of normal tissue, so as not to neglect the contribution of the host tissue in the micro-ecosystem that governs tumor behavior. As such, precultured heart tissue fragments (PHFs), dissected from 9-day-old chicken embryos, may be confronted with aggregates of human invasive MCF-7/6 mammary carcinoma cells or other cells in the presence of a certain concentration of a test compound. After eight days for MCF-7/6, or another period depending on the cell type, the interaction between the cancer cells and the PHF is evaluated histologically and classified along a 5-grades subjective scale (Bracke et al. 2014). Grades III and IV are typical for invasion, while grades 0, I and II correspond to absence of invasion. Compounds that inhibit invasion of confronting cancer cells i.e. from III/IV to 0/I/II, are determined as anti-invasive. Possible alternative assays generally known in the art are the type I collagen invasion assay, wound healing assay and the matrigel invasion assay.
The chick heart invasion (CHI) assay is a phenotypic assay that confronts precultured heart tissue fragments (PHFs, ‘normal tissue’), obtained from 9-day-old chicken embryos, with aggregates of human invasive MCF-7/6 mammary carcinoma cells (Bracke et al. 2014). In the control situation, the MCF-7/6 cells encircle, invade and destroy the PHF over an 8-day period. Invasion in this assay is defined as the progressive occupation and destruction of the PHF by the MCF-7/6 cells. Three-dimensional reconstruction of this interaction is obtained by microscopic analysis of all consecutive histological sections of the culture. The read-out is an invasion score according to a 5-grades histological scale.
The CHI closely reproduces the temporal, spatial and histological invasion patterns in man. The co-culture set-up probes for effects on both tumor cells and host tissue, and thus interrogates potential pharmacological targets in either interaction partner. Its use of histological evaluation allows discerning anti-invasive action from cytotoxicity or other effects.
We have submitted flavones B1-B4, flavanones B5-B8 and the intermediate 2′-hydroxychalcones A9, All and A12 to the chick heart invasion assay using MCF-7/6 aggregates. All compounds were evaluated at 1 μM and 100 nM; depending on the outcome higher or lower concentrations were subsequently evaluated. […] This table also includes CHI data on chalcones A1, A2 and A5.

13B2 hTERT breast CAFs = assay: AFM spheroid stiffness, 13B2 hTERT breast CAFs; assay type: cell-based, human; details: 48 h during spheroid formation; for Young's modulus / spheroid stiffness: 1 μM; for spheroid stiffness: 10 μM
From the text: (§1) It is well established that an increased tumor and ECM stiffness is associated with a negative prognosis as it promotes tumor growth, progression, therapy resistance, immunosuppression and metastasis. Stiffness is chiefly regulated by the action of the CAFs in the TME. Stiffness modulation is, therefore, a fitting read-out of activity in a screen for CAF modulators. To assess stiffness modulation, the stiffness of spheroids of CAF cells treated with test compounds was interrogated using atomic force microscopy (AFM) indentation and compared with untreated cells. AFM measurement of the stiffness (elasticity) of cells and spheroids is a technique well-known to those skilled in the art. AFM measures the force required to create a given deflection, this read-out is also known as the Young's modulus. AFM is widely used in biology and cancer research: altered physicochemical properties of live cells serve as a read-out of altered complex physiological processes.
(§2) U-shaped, 384-well ULA plates (cat. no. MS-9384UZ, S-bio) were seeded with a suspension of cell-specific culture media with cells. Cells were allowed to form spheroids for an appropriate time under treatment conditions before use in experiments. Cell culture dishes (cat. no. 734-2814, VWR) were filled with collagen gel and placed at 37° C. for an appropriate time to allow solidification. For each condition, spheroids were pooled in one cell culture dish. The medium was removed (stored at 37° C.) to promote attachment of the bottom of each spheroid to the collagen gel. The cell culture dishes were incubated at 37° C. After the incubation period, the stored medium was carefully (prevent detachment of spheroids) added to the dishes.
(§3) Mechanical measurements were performed using an atomic force microscope. To indent the spheroids an in-house made colloidal probe was used. Force curves were collected using an appropriate setpoint and probe speed (depending on the stiffness of the spheroids). On each spheroid multiple force curves were collected. Collected curves were then processed using the JPK DP software. Young's modulus was extracted from the force curves. All experiments were performed in biological triplicate.
(§4) To generate 3D cultures mimicking the complexity and pathophysiology of in vivo tumors, spheroids were used (cfr. point 4). Spheroids are considered to better simulate cellular heterogeneity, nutrient and oxygen gradients, cell-cell interactions, cell-matrix interactions, gene expression profiles, stromal interactions, therapeutic responses, multicellular resistance, drug penetration and anti-apoptotic signaling.

CAF03 glioblastoma CAFs = assay: AFM spheroid stiffness, CAF03 glioblastoma CAFs; assay type: cell-based; details: 10 μM, 48 h
From the text: as §1, §2, §3, §4

[2] = test system: MCF-7/6 breast cancer cells; assay: AFM spheroid stiffness, MCF-7/6 breast cancer cells; assay type: cell-based, human; details: 10 μM, 48 h
Protocol: (§5) Selectivity for CAFs with respect to normal fibroblasts and other cell types was assessed by performing an identical experiment with normal fibroblasts and other cell types, where compounds were considered selective for CAFs if they only modulate CAF stiffness.
as §2, §3, §4

[3] = test system: HCA2 hTERT dermal fibroblasts; assay: AFM spheroid stiffness, HCA2 hTERT dermal fibroblasts; assay type: cell-based; details: HCA2 hTERT normal dermal fibroblasts; 10 μM, 48 h
Protocol: as §5, §2, §3, §4

[4] = test system: primary human atrial fibroblasts; assay: AFM spheroid stiffness, primary human atrial fibroblasts; assay type: cell-based; details: 10 μM, 48 h
Protocol: as §5, §2, §3, §4

[5] = test system: primary glioblastoma (GBM) cells; assay: AFM spheroid stiffness, primary glioblastoma cells; assay type: cell-based, human; details: 10 μM, 48 h
Protocol: as §5, §2, §3, §4

Structure (SMILES): COc1ccc(C(=O)/C=C/c2ccc(Cl)cc2)cc1 [Compound A2, 3-(4-Chlorophenyl)-1-(4-methoxyphenyl)prop2-en-1-one]
- minimal effective concentration [1]: 0.01 µM

Structure (SMILES): COc1ccc(C(=O)/C=C/c2ccc(F)cc2)cc1 [Compound A5, 3-(4-Fluorophenyl)-1-(4-methoxyphenyl)prop2-en-1-one]
- minimal effective concentration [1]: 1 µM

Structure (SMILES): O=C(/C=C/c1ccccc1)c1ccccc1 [Compound A8, 1,3-Diphenvlprop2-en-1-one]
- Young's modulus / spheroid stiffness (13B2 hTERT breast CAFs): did not have an effect

Structure (SMILES): COc1cc(O)c(C(=O)/C=C/c2ccc(F)cc2)c(OC)c1OC [Compound A10, 3-(4-Fluorophenyl)-1-(6-hydroxy-2,3,4-trimethoxyphenyl)prop-2-en-1-one]
- minimal effective concentration [1]: 0.01 µM

Structure (SMILES): COc1ccc(C(=O)/C=C/c2ccc(F)cc2)c(O)c1 [Compound A12, 3-(4-fluorophenyl)-1-(2-hydroxy-4-methoxyphenyl)prop-2-en-1-one]
- minimal effective concentration [1]: 1 µM

Structure (SMILES): COc1ccc(C(=O)/C=C/c2ccc(Cl)cc2)c(O)c1 [Compound A13, 3-(4-chlorophenyl)-1-(2-hydroxy-4-methoxyphenyl)prop-2-en-1-one]
- minimal effective concentration [1]: 0.1 µM

Structure (SMILES): COc1ccc(C(=O)/C=C/c2ccc(F)cc2)cc1C(F)(F)F [Compound A14, 3-(4-Fluorophenyl)-1-(4-methoxy-3-(trifluoromethyl)phenyl)prop-2-en-1-one]
- Young's modulus / spheroid stiffness (13B2 hTERT breast CAFs): decreased

Structure (SMILES): COc1cc2c(=O)cc(-c3ccc(F)cc3)oc2c(OC)c1OC [Compound B2, 2-(4-Fluorophenyl)-6,7,8-trimethoxy-4H-chromen-4-one]
- minimal effective concentration [1]: 10 µM

Structure (SMILES): COc1ccc2c(=O)cc(-c3ccc(F)cc3)oc2c1 [Compound B3, 2-(4-Fluorophenyl)-7-methoxy-4H-chromen-4-one]
- minimal effective concentration [1]: 0.01 µM

Structure (SMILES): COc1ccc2c(=O)cc(-c3ccc(Cl)cc3)oc2c1 [Compound B4, 2-(4-Chlorophenyl)-7-methoxy-4H-chromen-4-one]
- minimal effective concentration [1]: 0.01 µM

Structure (SMILES): COc1cc2c(c(OC)c1OC)C(=O)CC(c1ccc(F)cc1)O2 (centres unmarked) [Compound B5, 2-(4-Fluorophenyl)-5,6,7-dimethoxychroman-4-one]
- minimal effective concentration [1]: 0.1 µM

Structure (SMILES): COc1cc2c(c(OC)c1OC)OC(c1ccc(F)cc1)CC2=O (centres unmarked) [Compound B6, 2-(4-Fluorophenyl)-6,7,8-dimethoxychroman-4-one]
- minimal effective concentration [1]: 100 µM

Structure (SMILES): COc1ccc2c(c1)OC(c1ccc(F)cc1)CC2=O (centres unmarked) [Compound B7, 2-(4-Fluorophenvl)-7-methoxvchroman-4-one]
- minimal effective concentration [1]: 10 µM

Structure (SMILES): COc1ccc2c(c1)OC(c1ccc(Cl)cc1)CC2=O (centres unmarked) [Compound B8, 2-(4-Chlorophenyl)-7-methoxvchroman-4-one]
- minimal effective concentration [1]: 0.1 µM

Structure (SMILES): C[C@@H](N)[C@H]1CC[C@H](C(=O)Nc2ccncc2)CC1 [Compound Y-27632, Y-27632, reference compound]
- spheroid stiffness (CAF03 glioblastoma CAFs): active
- spheroid stiffness [2]: reduced the stiffness
- spheroid stiffness [3]: reduced the stiffness
- spheroid stiffness (13B2 hTERT breast CAFs): active
- spheroid stiffness [4]: reduced the stiffness
- spheroid stiffness [5]: reduced the stiffness

Structure (SMILES): Cc1ccc2c(c1)C(=O)C1(O)CCN(c3ccccc3)C1=N2 (centres unmarked) [blebbistatin, reference compound]
- spheroid stiffness (CAF03 glioblastoma CAFs): active
- spheroid stiffness [2]: reduced the stiffness
- spheroid stiffness [3]: reduced the stiffness
- spheroid stiffness (13B2 hTERT breast CAFs): active
- spheroid stiffness [4]: reduced the stiffness
- spheroid stiffness [5]: reduced the stiffness

Structure (SMILES): C=C1[C@@H](C)[C@H]2[C@H](Cc3ccccc3)NC(=O)[C@]23[C@H](OC(C)=O)/C=C/[C@@](C)(O)C(=O)[C@@H](C)C/C=C/[C@H]3[C@@H]1O [cytochalasin D, reference compound]
- spheroid stiffness (CAF03 glioblastoma CAFs): active
- spheroid stiffness [2]: reduced the stiffness
- spheroid stiffness [3]: reduced the stiffness
- spheroid stiffness (13B2 hTERT breast CAFs): active
- spheroid stiffness [4]: reduced the stiffness
- spheroid stiffness [5]: reduced the stiffness
